Assay results: PubChem BioAssay (NCI)
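48-hour exposure; five concentrations; linearly interpolated endpoints. Here, GI50 denotes the concentration required for 50% inhibition of growth. TGI denotes the concentration required for complete inhibition of growth.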

Assays:
Assay in all cases: NCI tumour cell line growth inhibition, 48 h
[1] = tested on: COLO 205 colon
[2] = tested on: MOLT-4 leukemia
[3] = tested on: DU-145 prostate
[4] = tested on: SK-OV-3 ovarian
[5] = tested on: OVCAR-5 ovarian
[6] = tested on: HCT-15 colon
[7] = tested on: LOX IMVI melanoma
[8] = tested on: SK-MEL-28 melanoma
[9] = tested on: HOP-62 NSCLC
[10] = tested on: NCI-H226 lung

| SMILES | TGI [1] | TGI [2] | TGI [3] | TGI [4] | TGI [5] | TGI [6] | TGI [7] | TGI [8] | TGI [9] | TGI [10] | GI50 [1] | GI50 [2] | GI50 [3] | GI50 [4] | GI50 [5] | GI50 [6] | GI50 [7] | GI50 [8] | GI50 [9] | GI50 [10] |
| --- | --- | --- | --- | --- | --- | --- | --- | --- | --- | --- | --- | --- | --- | --- | --- | --- | --- | --- | --- | --- |
| CCN(CC)/[N+]([O-])=N/OS(=O)(=O)N(C)C | > 100 µM | > 100 µM | > 100 µM | > 100 µM | > 100 µM | > 100 µM | > 100 µM | > 100 µM | > 100 µM | > 100 µM | – | – | – | – | – | – | – | – | – | – |
| NC(CCC(=O)O)C(=O)NC(Cc1ccc(N(CCCl)CCCl)cc1)C(=O)O (centres undefined) | > 100 µM | > 100 µM | > 100 µM | > 100 µM | > 100 µM | > 100 µM | > 100 µM | > 100 µM | > 100 µM | > 100 µM | – | – | – | – | – | – | – | – | – | – |
| CC1(c2ccc(Cl)cc2)C=C(c2ccc(Cl)cc2)C(C#N)=C(C(C#N)C#N)N1 (centres undefined) | 32.8 µM | 47 µM | 29.6 µM | 30.8 µM | 33 µM | 30.4 µM | 32.3 µM | 66.6 µM | 31.9 µM | 98.2 µM | – | – | – | – | – | – | – | – | – | – |
| C=CCN(c1cc(O)c2c(c(C)cn2S(=O)(=O)c2ccccc2)c1[N+](=O)[O-])S(C)(=O)=O | > 100 µM | > 100 µM | > 100 µM | > 100 µM | > 100 µM | > 100 µM | > 100 µM | > 100 µM | > 100 µM | > 100 µM | – | – | – | – | – | – | – | – | – | – |
| COC(=O)c1c(C)cccc1C1CN=NC12Cc1cc(C)c(C)cc1C2=O (centres undefined) | > 100 µM | > 100 µM | > 100 µM | > 100 µM | > 100 µM | > 100 µM | 67.9 µM | > 100 µM | > 100 µM | > 100 µM | – | – | – | – | – | – | – | – | – | – |
| COc1cc(S(=O)(=O)Nc2nc(-c3ccc(N=Cc4ccccc4O)cc3)cs2)ccc1Cl | 61.8 µM | > 100 µM | > 100 µM | > 100 µM | > 100 µM | > 100 µM | > 100 µM | > 100 µM | > 100 µM | > 100 µM | – | – | – | – | – | – | – | – | – | – |
| CO/C(N)=C(\C#N)N=Cc1ccsc1 | > 100 µM | > 100 µM | > 100 µM | > 100 µM | > 100 µM | > 100 µM | 36.7 µM | > 100 µM | > 100 µM | > 100 µM | – | – | – | – | – | – | – | – | – | – |
| N/C(CCSCCSCC/C(N)=N\O)=N\O | > 100 µM | > 100 µM | > 100 µM | > 100 µM | > 100 µM | > 100 µM | > 100 µM | > 100 µM | > 100 µM | > 100 µM | – | – | – | – | – | – | – | – | – | – |
| CCCCCC(=O)OC[n+]1cccc(-c2c(COC(=O)NC(C)C)c(COC(=O)NC(C)C)c3n2CCC3)c1 | > 100 µM | > 71.1 µM | > 100 µM | > 100 µM | > 100 µM | > 100 µM | > 100 µM | > 100 µM | > 100 µM | > 100 µM | – | – | – | – | – | – | – | – | – | – |
| O=[N+]([O-])c1ccc2c3c1[C@@H]1O[C@@H]1c1cccc(c1-3)[C@@H]1O[C@H]21 | 23.1 µM | > 100 µM | 8.72 µM | 44.3 µM | 31.3 µM | 6.05 µM | 3.44 µM | > 22.1 µM | 34.4 µM | > 80.9 µM | – | – | – | – | – | – | – | – | – | – |
| c1ccc(C(NC2=NCCO2)C2CC2)cc1 (centres undefined) | > 100 µM | > 100 µM | > 100 µM | > 100 µM | > 100 µM | > 100 µM | > 100 µM | > 100 µM | > 100 µM | > 100 µM | – | – | – | – | – | – | – | – | – | – |
| S=c1[nH]nc(Cn2c3ccc(Br)cc3c3nc4ccccc4nc32)o1 | > 100 µM | 60.5 µM | > 100 µM | > 100 µM | > 100 µM | > 100 µM | > 65.4 µM | > 79.2 µM | 99.2 µM | > 100 µM | – | – | – | – | – | – | – | – | – | – |
| Cc1nn(C(=O)Cc2ccccc2)c2c1C(c1ccc(/C=C/c3ccccc3)cc1)SC(N)=N2 (centres undefined) | > 100 µM | > 100 µM | > 100 µM | > 100 µM | – | > 100 µM | > 100 µM | > 100 µM | > 100 µM | > 100 µM | – | – | – | – | – | – | – | – | – | – |
| O=C(Nc1ccc(Cl)cc1Cl)C1C(=O)OC2(CCCCC2)OC1=O | 26.7 µM | 26.9 µM | 28.7 µM | 32.2 µM | 28 µM | 29.4 µM | 20.4 µM | 23.5 µM | 17.3 µM | 29.3 µM | – | – | – | – | – | – | – | – | – | – |
| O=[N+]([O-])c1ccc(N/N=C\c2cc(Br)ccc2O)nc1 | > 100 µM | 23.9 µM | 5.77 µM | 12 µM | > 100 µM | > 100 µM | 2.37 µM | > 100 µM | 10.3 µM | > 100 µM | 3.3 µM | 0.347 µM | 0.912 µM | 1.27 µM | 5.51 µM | 0.437 µM | 0.472 µM | 2.05 µM | 1.59 µM | 3.11 µM |
| O=C(OC1OC2COC(=O)c3cc(O)c(O)c(O)c3-c3c(cc(O)c(O)c3O)C(=O)OC3C2OC(=O)[C@@]24CC(=O)[C@@](O)(OC25C(=O)O[C@H]2[C@@H](O)CO[C@@]25O)C2(O)Oc5c(O)c(O)cc(c5C24)C(=O)OC13)c1cc(O)c(O)c(O)c1 (some centres undefined) | > 100 µM | > 100 µM | > 100 µM | > 100 µM | > 100 µM | > 100 µM | 25.1 µM | > 100 µM | > 100 µM | > 100 µM | – | – | – | – | – | – | – | – | – | – |
